Data on 30 compounds can be found in ChEMBL document CHEMBL5390257, “Fused Tetrahydroquinolines Are Interfering with Your Assay” (J Med Chem, 2023).

A word on the IC50: it is the concentration at which inhibition is half-maximal. Broadly, the Ki is a dissociation constant, usually derived from enzyme kinetics or from competition with a known ligand.

The structures appear in SMILES notation.

The nature of experiment [1]: Inhibition of Helicobacter pylori recombinant IspD domain of IspDF by HTS based photometric assay.
The target of experiment [2] is T1, Receptor-type tyrosine-protein phosphatase R (Homo sapiens) (UniProt Q15256).
T1 sequence (whole entry): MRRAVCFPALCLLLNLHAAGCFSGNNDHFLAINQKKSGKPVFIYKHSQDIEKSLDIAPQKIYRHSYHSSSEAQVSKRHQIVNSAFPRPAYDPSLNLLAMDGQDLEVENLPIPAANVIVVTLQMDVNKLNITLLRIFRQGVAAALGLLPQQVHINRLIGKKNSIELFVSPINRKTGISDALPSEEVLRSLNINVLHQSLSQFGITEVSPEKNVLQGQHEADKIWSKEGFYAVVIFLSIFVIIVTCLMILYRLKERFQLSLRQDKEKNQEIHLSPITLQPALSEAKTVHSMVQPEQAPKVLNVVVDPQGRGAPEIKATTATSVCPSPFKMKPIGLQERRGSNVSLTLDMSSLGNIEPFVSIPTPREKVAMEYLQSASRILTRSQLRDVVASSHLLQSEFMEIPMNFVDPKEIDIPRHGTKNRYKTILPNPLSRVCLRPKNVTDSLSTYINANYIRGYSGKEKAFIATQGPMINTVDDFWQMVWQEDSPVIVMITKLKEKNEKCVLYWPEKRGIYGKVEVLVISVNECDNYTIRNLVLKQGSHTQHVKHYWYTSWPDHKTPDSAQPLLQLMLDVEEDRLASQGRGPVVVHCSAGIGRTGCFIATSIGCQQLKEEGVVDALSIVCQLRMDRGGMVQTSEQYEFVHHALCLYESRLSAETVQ
Description: Inhibition of PTPRR (unknown origin) using pNPP as substrate assessed as fraction of control at 100 uM by high-throughput screening assay relative to control.

Experiment [3] addresses T2, Tyrosine-protein phosphatase non-receptor type 1 (Homo sapiens) (UniProt P18031).
T2 sequence (whole entry): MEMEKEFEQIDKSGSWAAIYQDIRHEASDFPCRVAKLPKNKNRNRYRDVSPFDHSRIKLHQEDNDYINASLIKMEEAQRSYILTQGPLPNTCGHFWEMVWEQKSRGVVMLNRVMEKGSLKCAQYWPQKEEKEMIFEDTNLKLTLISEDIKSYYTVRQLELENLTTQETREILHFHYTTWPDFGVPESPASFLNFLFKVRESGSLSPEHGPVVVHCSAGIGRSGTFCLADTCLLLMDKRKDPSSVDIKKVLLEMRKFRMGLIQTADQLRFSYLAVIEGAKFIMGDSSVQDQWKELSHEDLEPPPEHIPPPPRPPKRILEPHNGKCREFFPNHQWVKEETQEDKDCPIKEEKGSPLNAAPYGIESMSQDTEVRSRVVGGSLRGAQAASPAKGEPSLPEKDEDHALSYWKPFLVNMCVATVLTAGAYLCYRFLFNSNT
Description: Inhibition of PTP1B (unknown origin) using pNPP as substrate assessed as fraction of control at 100 uM by high-throughput screening assay relative to control.

The target of experiment [4] is T3, Tyrosine-protein phosphatase non-receptor type 5 (Homo sapiens) (UniProt P54829).
T3 sequence (whole entry): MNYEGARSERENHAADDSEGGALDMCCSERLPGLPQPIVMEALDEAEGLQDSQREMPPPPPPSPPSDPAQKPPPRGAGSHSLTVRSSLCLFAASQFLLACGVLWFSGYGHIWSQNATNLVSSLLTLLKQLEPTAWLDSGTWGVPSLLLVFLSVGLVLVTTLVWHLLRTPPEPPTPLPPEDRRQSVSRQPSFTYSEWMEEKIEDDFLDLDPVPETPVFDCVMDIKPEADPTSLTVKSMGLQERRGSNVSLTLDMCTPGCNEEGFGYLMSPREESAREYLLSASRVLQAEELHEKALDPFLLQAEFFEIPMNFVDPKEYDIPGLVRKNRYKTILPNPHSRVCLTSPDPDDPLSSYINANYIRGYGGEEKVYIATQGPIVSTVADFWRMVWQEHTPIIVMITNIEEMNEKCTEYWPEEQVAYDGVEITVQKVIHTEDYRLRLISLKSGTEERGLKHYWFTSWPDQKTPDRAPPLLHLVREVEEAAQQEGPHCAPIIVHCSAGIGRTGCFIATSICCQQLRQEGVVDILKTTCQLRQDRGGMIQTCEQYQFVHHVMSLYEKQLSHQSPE
Description: Inhibition of PTPN5 (unknown origin) using pNPP as substrate assessed as fraction of control at 100 uM by high-throughput screening assay relative to control.

Experiment [5] deals with T4, Tyrosine-protein phosphatase non-receptor type 7 (Homo sapiens) (UniProt P35236).
T4 sequence (whole entry): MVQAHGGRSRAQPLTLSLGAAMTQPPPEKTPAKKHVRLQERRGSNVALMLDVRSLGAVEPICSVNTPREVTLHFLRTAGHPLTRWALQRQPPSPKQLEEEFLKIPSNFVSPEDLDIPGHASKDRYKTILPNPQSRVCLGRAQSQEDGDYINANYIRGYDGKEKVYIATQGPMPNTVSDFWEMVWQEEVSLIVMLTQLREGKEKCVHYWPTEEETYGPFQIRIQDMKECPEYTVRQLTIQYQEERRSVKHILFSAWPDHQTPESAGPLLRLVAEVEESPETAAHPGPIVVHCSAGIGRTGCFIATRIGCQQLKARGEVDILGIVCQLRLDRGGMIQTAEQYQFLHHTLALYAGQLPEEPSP
Nature of the experiment: Inhibition of PTPN7 (unknown origin) using pNPP as substrate assessed as fraction of control at 100 uM by high-throughput screening assay relative to control.

Experiment [6] is described as follows: Inhibition of MurA (unknown origin) preincubated for 30 mins followed by substrate addition and measured after 8 mins by spectrometric analysis. Also on record: species or system Bacteria.
Experiment [7] deals with Serine/threonine-protein kinase PLK1 (Homo sapiens, UniProt P53350). Description: Inhibition of GST-tagged recombinant PLK1 (unknown origin) using 5-carboxyfluorescein-KKRNRRLSVA-OH peptide as substrate incubated for 3 hrs in presence of ATP by HTS TR-FRET assay.
Chain of Serine/threonine-protein kinase PLK1 (P53350 whole entry, the tested form may be a part): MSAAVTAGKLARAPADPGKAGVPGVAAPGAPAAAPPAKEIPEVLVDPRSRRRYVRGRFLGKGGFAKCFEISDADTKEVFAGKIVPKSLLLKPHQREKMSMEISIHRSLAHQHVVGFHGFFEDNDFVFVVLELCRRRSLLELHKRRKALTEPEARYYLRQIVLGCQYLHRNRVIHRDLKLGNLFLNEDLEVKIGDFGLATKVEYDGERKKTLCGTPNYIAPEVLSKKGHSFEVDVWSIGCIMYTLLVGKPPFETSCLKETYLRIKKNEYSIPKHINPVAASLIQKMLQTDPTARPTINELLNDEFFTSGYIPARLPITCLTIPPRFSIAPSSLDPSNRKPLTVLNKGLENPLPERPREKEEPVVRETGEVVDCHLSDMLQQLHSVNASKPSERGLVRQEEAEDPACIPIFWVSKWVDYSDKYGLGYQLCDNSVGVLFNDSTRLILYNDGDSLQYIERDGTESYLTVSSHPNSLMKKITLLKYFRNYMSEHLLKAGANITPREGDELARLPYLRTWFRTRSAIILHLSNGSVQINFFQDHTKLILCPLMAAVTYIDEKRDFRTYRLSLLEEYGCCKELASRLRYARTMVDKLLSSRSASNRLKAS
Experiment [8] can be described thus: Binding affinity to Yellow fever virus 17D recombinant NS5 N-terminal capping enzyme domain expressed in Escherichia coli BL21 (DE3) assessed as inhibition constant incubated for 1 hr by high-throughput screening fluorescence polarization assay.
Experiment [9] has as its target T5, M-phase inducer phosphatase 2 (Homo sapiens, UniProt P30305).
T5 sequence (P30305 whole entry): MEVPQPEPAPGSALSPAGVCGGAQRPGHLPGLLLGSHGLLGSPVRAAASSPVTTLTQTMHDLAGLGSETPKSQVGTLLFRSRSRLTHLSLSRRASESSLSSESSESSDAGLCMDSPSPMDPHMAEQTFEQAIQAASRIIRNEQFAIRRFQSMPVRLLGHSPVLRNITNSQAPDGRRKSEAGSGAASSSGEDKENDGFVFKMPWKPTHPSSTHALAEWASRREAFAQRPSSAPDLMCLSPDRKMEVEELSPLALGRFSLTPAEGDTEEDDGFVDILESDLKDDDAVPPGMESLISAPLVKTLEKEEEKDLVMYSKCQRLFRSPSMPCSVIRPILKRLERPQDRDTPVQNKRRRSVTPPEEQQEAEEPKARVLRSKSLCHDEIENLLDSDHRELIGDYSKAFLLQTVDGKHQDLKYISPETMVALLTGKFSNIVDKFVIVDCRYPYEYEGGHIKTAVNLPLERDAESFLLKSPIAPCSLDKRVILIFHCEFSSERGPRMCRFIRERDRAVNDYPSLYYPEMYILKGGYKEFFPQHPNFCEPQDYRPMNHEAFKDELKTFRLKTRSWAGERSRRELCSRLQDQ
Description: Inhibition of full-length 6His/GST-tagged recombinant human CDC25B using OMFP as substrate incubated for 60 mins by fluorescence based analysis.

Experiment [10] has as its target T6, Tyrosine-protein phosphatase non-receptor type 1 (Homo sapiens, UniProt P18031).
T6 sequence (P18031 whole entry): T2 sequence (whole entry)
Description: Inhibition of human recombinant PTP1B using OMFP as substrate incubated for 60 mins by fluorescence based analysis.

For experiment [11], the target named is SH3 and multiple ankyrin repeat domains protein 3 (Mus musculus, UniProt Q4ACU6). Description: Binding affinity to His-tagged murine Shank3 PDZ domain assessed as inhibition constant by fluorescence polarization assay. A general note: Polarisation of emitted light reports the rotation of a fluorescent probe.
Chain of SH3 and multiple ankyrin repeat domains protein 3 (Q4ACU6 whole entry, the tested form may be a part): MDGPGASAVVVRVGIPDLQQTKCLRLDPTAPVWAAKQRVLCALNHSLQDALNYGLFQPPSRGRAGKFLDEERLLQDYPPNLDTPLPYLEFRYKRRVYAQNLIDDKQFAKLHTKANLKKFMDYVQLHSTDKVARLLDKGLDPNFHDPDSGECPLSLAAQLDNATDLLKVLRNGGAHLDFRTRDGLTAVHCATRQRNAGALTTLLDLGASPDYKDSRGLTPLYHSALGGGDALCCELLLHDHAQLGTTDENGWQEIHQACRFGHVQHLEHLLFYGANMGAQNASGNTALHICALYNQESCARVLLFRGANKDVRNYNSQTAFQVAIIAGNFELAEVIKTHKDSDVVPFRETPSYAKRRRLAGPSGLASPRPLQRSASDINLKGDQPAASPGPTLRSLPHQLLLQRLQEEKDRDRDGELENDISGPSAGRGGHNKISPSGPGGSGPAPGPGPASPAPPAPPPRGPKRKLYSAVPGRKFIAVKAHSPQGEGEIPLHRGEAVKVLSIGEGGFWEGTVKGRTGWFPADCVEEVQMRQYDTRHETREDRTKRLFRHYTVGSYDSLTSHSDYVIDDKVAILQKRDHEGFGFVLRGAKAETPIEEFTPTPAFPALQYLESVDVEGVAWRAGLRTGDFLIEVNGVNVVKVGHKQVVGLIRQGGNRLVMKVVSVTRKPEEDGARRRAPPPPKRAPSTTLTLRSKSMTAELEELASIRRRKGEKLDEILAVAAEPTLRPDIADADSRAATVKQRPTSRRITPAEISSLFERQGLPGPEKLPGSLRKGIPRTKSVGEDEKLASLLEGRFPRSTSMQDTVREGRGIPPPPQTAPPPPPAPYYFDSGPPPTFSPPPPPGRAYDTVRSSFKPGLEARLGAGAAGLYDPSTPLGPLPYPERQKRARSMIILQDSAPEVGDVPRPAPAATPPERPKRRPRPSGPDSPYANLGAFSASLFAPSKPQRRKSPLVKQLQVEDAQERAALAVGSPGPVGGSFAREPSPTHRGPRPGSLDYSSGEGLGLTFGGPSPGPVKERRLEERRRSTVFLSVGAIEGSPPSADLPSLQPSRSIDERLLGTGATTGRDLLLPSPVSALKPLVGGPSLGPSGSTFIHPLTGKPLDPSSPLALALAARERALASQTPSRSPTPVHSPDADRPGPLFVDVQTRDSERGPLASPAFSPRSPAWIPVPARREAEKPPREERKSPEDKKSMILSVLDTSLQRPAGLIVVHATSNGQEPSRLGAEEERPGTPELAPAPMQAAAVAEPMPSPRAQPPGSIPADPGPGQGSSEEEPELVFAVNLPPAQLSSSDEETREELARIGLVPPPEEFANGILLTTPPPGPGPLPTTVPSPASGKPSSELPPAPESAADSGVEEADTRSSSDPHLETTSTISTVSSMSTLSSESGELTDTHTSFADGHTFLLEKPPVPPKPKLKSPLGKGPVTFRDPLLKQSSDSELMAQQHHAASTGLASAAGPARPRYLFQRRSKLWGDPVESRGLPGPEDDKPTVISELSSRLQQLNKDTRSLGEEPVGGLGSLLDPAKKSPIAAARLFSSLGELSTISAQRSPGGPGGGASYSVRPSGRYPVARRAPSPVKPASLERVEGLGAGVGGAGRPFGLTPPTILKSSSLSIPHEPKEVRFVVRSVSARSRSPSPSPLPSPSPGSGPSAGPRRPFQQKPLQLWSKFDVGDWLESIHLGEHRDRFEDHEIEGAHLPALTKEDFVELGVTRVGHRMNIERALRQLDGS
For experiment [12], the target named is Diacylglycerol kinase alpha (Sus scrofa, UniProt P20192). Description: Inhibition of GST-fused pig DGK alpha expressed in Sf9 insect cells incubated for 2 hrs by HTS ADP-Glo DGK assay. (In general: In ADP-Glo the light output rises with the ADP produced.)
Chain of Diacylglycerol kinase alpha (P20192 whole entry, the tested form may be a part): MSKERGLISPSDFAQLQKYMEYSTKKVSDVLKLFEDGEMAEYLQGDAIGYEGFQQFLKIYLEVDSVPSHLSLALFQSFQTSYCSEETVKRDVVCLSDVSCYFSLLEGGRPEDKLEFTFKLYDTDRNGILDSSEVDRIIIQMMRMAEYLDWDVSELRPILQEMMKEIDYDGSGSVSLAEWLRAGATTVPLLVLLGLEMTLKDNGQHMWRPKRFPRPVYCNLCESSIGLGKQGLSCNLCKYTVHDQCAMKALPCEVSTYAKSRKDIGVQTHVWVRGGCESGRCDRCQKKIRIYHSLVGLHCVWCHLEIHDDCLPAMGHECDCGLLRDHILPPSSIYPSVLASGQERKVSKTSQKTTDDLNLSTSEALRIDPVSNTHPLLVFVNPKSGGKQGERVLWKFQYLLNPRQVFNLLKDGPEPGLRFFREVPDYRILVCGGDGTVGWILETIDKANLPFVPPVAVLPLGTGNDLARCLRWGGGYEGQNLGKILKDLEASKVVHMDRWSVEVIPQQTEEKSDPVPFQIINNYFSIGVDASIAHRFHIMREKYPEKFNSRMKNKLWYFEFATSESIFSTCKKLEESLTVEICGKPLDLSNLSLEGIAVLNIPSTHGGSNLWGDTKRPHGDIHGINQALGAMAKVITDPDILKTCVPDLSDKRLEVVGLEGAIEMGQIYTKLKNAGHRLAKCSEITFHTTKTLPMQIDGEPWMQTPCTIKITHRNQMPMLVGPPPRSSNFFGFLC

On to `O=C(O)C1Nc2ccc(Oc3ccccc3)cc2C2C=CCC12` (stereo not drawn), for which the concentration for half-maximal inhibition (IC50) in [1] came out at 2.4 µM.
Regarding `O=C(O)C1Nc2ccccc2C2C=CCC12` (stereo not drawn), the fold change (FC) was 0.08 in experiment [2], 0.23 in experiment [3], 0.73 in experiment [4] and 0.41 in [5].
As to `CNc1ccc2c(c1)C1C=CCC1C(C(=O)O)N2` (stereo not drawn), the IC50 in experiment [6] is < 5 µM.
In the case of `O=C(O)c1ccc2c(c1)[C@@H]1C=CC[C@@H]1[C@H](c1ccccn1)N2`, the IC50 in [7] was determined as 17 µM.
Consider `O=C(O)C1Nc2ccc(F)cc2C2C=CCC12` (stereo not drawn), for which the IC50 in experiment [6] was < 5 µM.
Take `O=C(O)C1Nc2c(I)cccc2C2C=CCC12` (stereo not drawn): in experiment [8], the inhibition constant (Ki) was 7.1 µM.
In the case of `COc1ccc2c(c1)C1C=CCC1C(C(=O)O)N2` (stereo not drawn), the IC50 in [6] is < 5 µM.
As for `CCOC(=O)C1Nc2cccc(C(=O)O)c2C2C=CCC12` (stereo not drawn), the IC50 in experiment [6] is < 5 µM.
As for `Cc1ccc2c(c1)C1C=CCC1C(C(=O)O)N2` (stereo not drawn), in experiment [6], the half-inhibitory concentration (IC50) is < 5 µM.
As to `O=C(O)c1ccc2c(c1)NC(C(=O)O)C1CC=CC21` (stereo not drawn), the 50% inhibitory concentration (IC50) in experiment [6] was < 5 µM.
Turning to `O=C(O)c1ccc2c(c1)C1C=CCC1C(C(=O)O)N2` (stereo not drawn), the fold change (FC) was determined as 0.08 in experiment [2], 0.23 in experiment [3], 0.73 in experiment [4] and 0.41 in experiment [5]. For the same compound, the results for the 50% inhibitory concentration (IC50) in experiment [6], in experiment [9] and in experiment [10] were < 5 µM, 2.5 µM and 6.6 µM, respectively.
`O=C(O)c1ccc([N+](=O)[O-])c2c1N[C@@H](C(=O)O)[C@H]1CC=C[C@@H]21`: the Ki in [11] came to 17 µM.
On to `CC(=O)Nc1ccc(OC(=O)c2cccc3c2NC(C(=O)O)C2CC=CC32)cc1` (stereo not drawn), for which the IC50 in experiment [6] was < 5 µM.
On to `CC(=O)c1ccc2c(c1)C1C=CCC1C(C(=O)O)N2` (stereo not drawn), for which the fold change (FC) in [2] turned out to be 0.08; in experiment [3], 0.23; in [4], 0.73; in experiment [5], 0.41. Moreover, the half-inhibitory concentration (IC50) in experiment [6] is < 5 µM; in [12] it was 6 µM.
Regarding `NC(=O)c1ccc2c(c1)C1C=CCC1C(C(=O)O)N2` (stereo not drawn), in experiment [6], the half-maximal inhibitory concentration (IC50) was < 5 µM.
On to `O=C(O)C1Nc2ccc(Br)cc2C2C=CCC12` (stereo not drawn), for which the fold change (FC) is 0.08 in experiment [2], 0.23 in [3], 0.73 in [4] and 0.41 in experiment [5].
For the compound `O=C(O)C1Nc2ccc(Cl)cc2C2C=CCC12` (stereo not drawn), the IC50 in [9] was 2.5 µM.
As for `O=C(O)C1Nc2ccc(OC(F)(F)F)cc2C2C=CCC12` (stereo not drawn), in experiment [6], the concentration for half-maximal inhibition (IC50) is < 5 µM.
On to `O=C(O)c1cccc2c1NC(C(=O)O)C1CC=CC21` (stereo not drawn), for which the fold change (FC) came out at 0.08 in [2], 0.23 in experiment [3], 0.73 in experiment [4] and 0.41 in [5]. For the same compound, the IC50 was < 5 µM in experiment [6] and 2.5 µM in experiment [9].
For the compound `COC(=O)c1cccc2c1NC(C(=O)O)C1CC=CC21` (stereo not drawn), the IC50 in experiment [6] is < 5 µM.
On the same count and under the same terms, to `O=C(O)C1Nc2ccc(F)c(Cl)c2C2C=CCC12` (stereo not drawn) belongs < 5 µM; to `O=C(O)C1Nc2ccc(Nc3ccccc3)cc2C2C=CCC12` (stereo not drawn), < 5 µM.
For the compound `NC(=O)c1cccc2c1NC(C(=O)O)C1CC=CC21` (stereo not drawn), in experiment [6], the IC50 was < 5 µM.
On to `O=C(O)C1Nc2c(F)cccc2C2C=CCC12` (stereo not drawn), for which the fold change (FC) in [2] turned out to be 0.08; in experiment [3], 0.23; in [4], 0.73; in experiment [5] it was 0.41.
In the case of `CN(C)C(=O)c1ccc2c(c1)C1C=CCC1C(C(=O)O)N2` (stereo not drawn), the IC50 in experiment [6] is < 5 µM.
For `O=C(O)C1Nc2cc(-c3cccnc3)ccc2C2C=CCC12` (stereo not drawn), the IC50 in experiment [6] was < 5 µM.
For `CC(=O)Nc1ccc2c(c1)NC(C(=O)O)C1CC=CC21` (stereo not drawn), the half-inhibitory concentration (IC50) in experiment [6] is < 5 µM.
Regarding `O=C(O)C1Nc2c(O)cccc2C2C=CCC12` (stereo not drawn), the fold change (FC) was determined as 0.08 in experiment [2], 0.23 in [3], 0.73 in experiment [4] and 0.41 in [5].
Turning to `O=C(O)c1cccc2c1C1C=CCC1C(C(=O)O)N2` (stereo not drawn), the IC50 in experiment [6] was < 5 µM.
For `O=C(O)c1ccc2c(c1)[C@@H]1C=CC[C@@H]1[C@H](C(=O)O)N2`, the inhibition constant Ki in experiment [11] worked out at 70 µM.
